This note sets out measurements from US9023789B2, “Amylin analogs and pharmaceutical compositions thereof” (Novo Nordisk A/S, priority 2012, dated 2015).

Numbered stars: 1 amine (or outer) side, 2 acyl side, 3 side chain; on linkers, the order of the positions; unused ones are H or OH. Bridge positions count the residues as written; N and C are the ends. Side chains are listed from the residue outwards. Peptide text beside a SMILES is read from it. * marks the point of attachment. C20 diacid = O=C(O)CCCCCCCCCCCCCCCCCCC(=O)*; γGlu = O=C(O)[C@H](CCC(=O)[*:2])N[*:1]; AEEA = NCCOCCOCC(=O)O

Assay [1] deals with T1, human calcitonin (a) receptor in BHK570 cells (Homo sapiens, UniProt P30988).
T1 construct: expressed in transfected cells
T1 sequence (P30988 25-474): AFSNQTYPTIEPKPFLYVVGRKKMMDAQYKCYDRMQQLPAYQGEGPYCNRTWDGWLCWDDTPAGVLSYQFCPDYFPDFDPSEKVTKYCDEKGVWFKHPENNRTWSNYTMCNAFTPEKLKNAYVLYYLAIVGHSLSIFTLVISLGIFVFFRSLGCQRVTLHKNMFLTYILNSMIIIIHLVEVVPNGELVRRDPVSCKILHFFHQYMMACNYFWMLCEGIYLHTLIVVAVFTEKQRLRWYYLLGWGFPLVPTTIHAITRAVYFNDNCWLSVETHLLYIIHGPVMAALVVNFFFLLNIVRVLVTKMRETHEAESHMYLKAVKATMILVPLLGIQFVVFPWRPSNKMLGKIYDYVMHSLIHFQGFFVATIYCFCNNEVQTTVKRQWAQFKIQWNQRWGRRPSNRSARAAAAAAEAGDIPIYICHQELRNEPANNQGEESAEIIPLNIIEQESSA
Nature of the assay: ASSAY (II)a functional assay, human calcitonin receptor (CRE luciferase). The class given is cell-based. To be noted: read-out: hCTR funct. EC50. The procedure, abridged:
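Read-out: CRE-driven luciferase luminescence, single photon counting, after 30 min at room temperature with LucLite. BHK cells expressed calcitonin receptor alone or with RAMP-3 (amylin 3(a)). Cells were stimulated 3 h at 37° C in DMEM, 10% FBS, 10 mM Hepes, pH 7.4.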

Assay [2] deals with T2, rat amylin receptor (rat calcitonin receptor + rat RAMP 3) (Rattus norvegicus, UniProt P32214+Q9JJ73).
T2 construct: expressed in transfected cells; host or cells: BHK tk'ts 13 (transient, FuGENE 6), membranes
T2 sequence (P32214 25-479 isoform P32214-2 limits assumed): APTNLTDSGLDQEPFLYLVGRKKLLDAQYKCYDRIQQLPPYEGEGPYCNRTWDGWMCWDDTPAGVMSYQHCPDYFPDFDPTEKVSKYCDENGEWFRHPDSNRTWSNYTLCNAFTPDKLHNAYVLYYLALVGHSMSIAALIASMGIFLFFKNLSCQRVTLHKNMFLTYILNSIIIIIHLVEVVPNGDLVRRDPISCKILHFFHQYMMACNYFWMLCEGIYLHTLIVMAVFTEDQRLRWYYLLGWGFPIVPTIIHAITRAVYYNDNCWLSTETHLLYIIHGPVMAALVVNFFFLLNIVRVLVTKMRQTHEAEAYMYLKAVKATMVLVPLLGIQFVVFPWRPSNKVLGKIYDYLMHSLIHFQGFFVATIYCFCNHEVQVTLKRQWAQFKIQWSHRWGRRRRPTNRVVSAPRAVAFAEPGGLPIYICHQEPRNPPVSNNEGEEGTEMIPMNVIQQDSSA
T2 sequence (Q9JJ73 23-147 partner): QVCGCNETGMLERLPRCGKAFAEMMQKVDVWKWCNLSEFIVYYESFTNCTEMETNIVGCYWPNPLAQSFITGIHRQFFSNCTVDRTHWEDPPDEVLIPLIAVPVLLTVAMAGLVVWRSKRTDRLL
Briefly: ASSAY (VI) binding to the rat amylin receptor. As to conditions: for IC50: binding to rat amylin receptor, read-out: rAmylin-R bind IC50. The procedure, abridged:
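The cell-membrane assay assessed binding at the rat amylin receptor. BHK tk′ts 13 cells were transfected transiently with rat calcitonin receptor, with FuGENE® 6 (Roche) as the transfection reagent, used per the manufacturer's recommendations. Approximately 48 hours after transfection the cells were harvested, and membranes were prepared for measuring binding.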

Assay [3] addresses T3, human calcitonin receptor (Homo sapiens, UniProt P30988).
T3 construct: expressed in transfected cells
T3 sequence (P30988 25-474): T1 sequence (P30988 25-474)
Nature of the assay: ASSAY (VII) binding to the human calcitonin receptor (SPA, 125I-Calcitonin).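 Also: cell membranes (35 ng/µL) combined with SPA beads in 40 µL of pH 7.4 Hepes buffer, 384-well format, signal counted on a TopCounter instrument.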 To be noted: read-out: hCTR bind IC50.

[4] abbreviates: Table 7, rat binding selectivity, rCTR IC50 / rAmylin-R IC50.
Where [5] appears, read: Table 7a (preferred compounds), rat binding selectivity, rCTR IC50 / rAmylin-R IC50.
Setting [6] is: ratio of rCTR bind IC50 to rAmylin-R bind IC50.

Turning to `CC[C@H](C)[C@H](NC(=O)[C@H](C)NC(=O)CNC(=O)[C@H](Cc1ccccc1)NC(=O)[C@H](CC(N)=O)NC(=O)[C@@H]1CCCN1C(=O)[C@H](CO)NC(=O)[C@H](CO)NC(=O)[C@H](Cc1c[nH]cn1)NC(=O)[C@H](CCCNC(=N)N)NC(=O)[C@H](CC(C)C)NC(=O)[C@H](Cc1ccccc1)NC(=O)[C@H](CC(=O)O)NC(=O)[C@H](C)NC(=O)[C@H](CC(C)C)NC(=O)[C@H](CCCNC(=N)N)NC(=O)[C@H](CCC(N)=O)NC(=O)[C@@H](NC(=O)[C@H](C)NC(=O)[C@@H]1CSSC[C@H](NC(=O)[C@@H](N)CCCCNC(=O)CC[C@H](NC(=O)CCCCCCCCCCCCCCCCCCC(=O)O)C(=O)O)C(=O)N[C@@H](CC(N)=O)C(=O)N[C@@H]([C@@H](C)O)C(=O)N[C@@H](C)C(=O)N[C@@H]([C@@H](C)O)C(=O)N1)[C@@H](C)O)C(=O)N1CCC[C@H]1C(=O)N[C@@H](CO)C(=O)N[C@@H](CO)C(=O)N[C@H](C(=O)N[C@@H](CC(N)=O)C(=O)N[C@H](C(=O)NCC(=O)N1CCC[C@H]1C(=O)N[C@@H](CCC(=O)O)C(=O)N[C@H](C(=O)N[C@@H](Cc1ccc(O)cc1)C(N)=O)[C@@H](C)O)C(C)C)[C@@H](C)O` [Example 123] (H-K([γGlu-C20 diacid])CNTATCATQRLADFLRHSSPNFGAIPSSTNVGPETY-NH2; disulfide 2-7; N-terminus assumed), the EC50 (commonly the concentration that produces a half-maximal response) in assay [1] was found to be 1.11 nM. The figures for the IC50 in assay [2] (Table 7) and in assay [3] were 0.3 nM and 3.27 nM, respectively. Moreover, the “Ratio rCT/rAmylin binding” value in assay [2] (setting [4]), in assay [2] (setting [5]) and in assay [2] (setting [6]) was 62.0 each time.

`CC[C@H](C)[C@H](NC(=O)[C@H](C)NC(=O)CNC(=O)[C@H](Cc1ccccc1)NC(=O)[C@H](CC(N)=O)NC(=O)[C@@H]1CCCN1C(=O)[C@H](CO)NC(=O)[C@H](CO)NC(=O)[C@H](Cc1c[nH]cn1)NC(=O)[C@H](CCCNC(=N)N)NC(=O)[C@H](CC(C)C)NC(=O)[C@H](Cc1ccccc1)NC(=O)[C@H](CC(N)=O)NC(=O)[C@H](C)NC(=O)[C@H](CC(C)C)NC(=O)[C@H](CCCNC(=N)N)NC(=O)[C@H](CCC(N)=O)NC(=O)[C@@H](NC(=O)[C@H](C)NC(=O)[C@@H]1CSSC[C@H](NC(=O)[C@@H](N)CCCCNC(=O)CC[C@H](NC(=O)CCCCCCCCCCCCCCCCCCC(=O)O)C(=O)O)C(=O)N[C@@H](CC(N)=O)C(=O)N[C@@H]([C@@H](C)O)C(=O)N[C@@H](C)C(=O)N[C@@H]([C@@H](C)O)C(=O)N1)[C@@H](C)O)C(=O)N1CCC[C@H]1C(=O)N[C@@H](CO)C(=O)N[C@@H](CO)C(=O)N[C@H](C(=O)N[C@@H](CC(N)=O)C(=O)N[C@H](C(=O)NCC(=O)N[C@@H](CO)C(=O)N[C@@H](CCCCN)C(=O)N[C@H](C(=O)N[C@@H](Cc1ccc(O)cc1)C(N)=O)[C@@H](C)O)C(C)C)[C@@H](C)O` [Example 35] (H-K([γGlu-C20 diacid])CNTATCATQRLANFLRHSSPNFGAIPSSTNVGSKTY-NH2; disulfide 2-7; N-terminus assumed): the concentration for a half-maximal effect (EC50) in assay [1] is 5.46 nM. Moreover, the half-inhibitory concentration (IC50) – broadly, the concentration needed to halve the response being measured – was found to be 0.948 nM in assay [2] (Table 7) and 48.7 nM in assay [3]. For the same molecule, the “Ratio rCT/rAmylin binding” value in assay [2] (setting [4]), in assay [2] (setting [5]) and in assay [2] (setting [6]) was 65.1 in each case.

Consider `CC[C@H](C)[C@H](NC(=O)[C@H](C)NC(=O)CNC(=O)[C@H](Cc1ccccc1)NC(=O)[C@H](CC(N)=O)NC(=O)[C@@H]1CCCN1C(=O)[C@H](CO)NC(=O)[C@H](CO)NC(=O)[C@H](Cc1c[nH]cn1)NC(=O)[C@H](CCCNC(=N)N)NC(=O)[C@H](CC(C)C)NC(=O)[C@H](Cc1ccccc1)NC(=O)[C@H](Cc1c[nH]cn1)NC(=O)[C@H](C)NC(=O)[C@H](CC(C)C)NC(=O)[C@H](CCCNC(=N)N)NC(=O)[C@H](CCC(N)=O)NC(=O)[C@@H](NC(=O)[C@H](C)NC(=O)[C@@H]1CSSC[C@H](NC(=O)[C@@H](N)CCCCNC(=O)CC[C@H](NC(=O)CCCCCCCCCCCCCCCCCCC(=O)O)C(=O)O)C(=O)N[C@@H](CC(N)=O)C(=O)N[C@@H]([C@@H](C)O)C(=O)N[C@@H](C)C(=O)N[C@@H]([C@@H](C)O)C(=O)N1)[C@@H](C)O)C(=O)N1CCC[C@H]1C(=O)N[C@@H](CO)C(=O)N[C@@H](CO)C(=O)N[C@H](C(=O)N1CCC[C@H]1C(=O)N[C@H](C(=O)NCC(=O)N[C@@H](CO)C(=O)N[C@@H](CC(N)=O)C(=O)N[C@H](C(=O)N[C@@H](Cc1ccc(O)cc1)C(N)=O)[C@@H](C)O)C(C)C)[C@@H](C)O` [Example 62] (H-K([γGlu-C20 diacid])CNTATCATQRLAHFLRHSSPNFGAIPSSTPVGSNTY-NH2; disulfide 2-7; N-terminus assumed), for which, in assay [1], the EC50 worked out at 0.539 nM. For the same molecule, the IC50 is 0.42 nM in assay [2] (Table 7) and 6.17 nM in assay [3]. For the same molecule, the “Ratio rCT/rAmylin binding” value in assay [2] (setting [4]), in assay [2] (setting [5]) and in assay [2] (setting [6]) was 42.8 throughout.

Turning to `CC[C@H](C)[C@H](NC(=O)[C@H](C)NC(=O)CNC(=O)[C@H](Cc1ccccc1)NC(=O)[C@H](CC(N)=O)NC(=O)[C@@H]1CCCN1C(=O)[C@H](CO)NC(=O)[C@H](CO)NC(=O)[C@H](Cc1c[nH]cn1)NC(=O)[C@H](CCCNC(=N)N)NC(=O)[C@H](CC(C)C)NC(=O)[C@H](Cc1ccccc1)NC(=O)[C@H](CCC(=O)O)NC(=O)[C@H](C)NC(=O)[C@H](CC(C)C)NC(=O)[C@H](CCCNC(=N)N)NC(=O)[C@H](CCC(N)=O)NC(=O)[C@@H](NC(=O)[C@H](C)NC(=O)[C@@H]1CSSC[C@H](NC(=O)[C@H](CCCCN)NC(=O)COCCOCCNC(=O)COCCOCCNC(=O)CC[C@H](NC(=O)CCCCCCCCCCCCCCCCCCC(=O)O)C(=O)O)C(=O)N[C@@H](CC(N)=O)C(=O)N[C@@H]([C@@H](C)O)C(=O)N[C@@H](C)C(=O)N[C@@H]([C@@H](C)O)C(=O)N1)[C@@H](C)O)C(=O)N1CCC[C@H]1C(=O)N[C@@H](CO)C(=O)N[C@@H](CO)C(=O)N[C@H](C(=O)N[C@@H](CC(N)=O)C(=O)N[C@H](C(=O)NCC(=O)N[C@@H](CO)C(=O)N[C@@H](CC(N)=O)C(=O)N[C@H](C(=O)N1CCC[C@H]1C(N)=O)[C@@H](C)O)C(C)C)[C@@H](C)O` [Example 20] ({C20 diacid-γGlu-AEEA-AEEA}-KCNTATCATQRLAEFLRHSSPNFGAIPSSTNVGSNTP-NH2; disulfide 2-7), the EC50 in assay [1] worked out at 0.285 nM. Further, the “Ratio rCT/rAmylin binding” value in assay [2] (setting [4]) is 6.4. The IC50 in assay [3] is 0.787 nM.

Take `CC[C@H](C)[C@H](NC(=O)[C@H](C)NC(=O)CNC(=O)[C@H](Cc1ccccc1)NC(=O)[C@H](CC(N)=O)NC(=O)[C@@H]1CCCN1C(=O)[C@H](CO)NC(=O)[C@H](CO)NC(=O)[C@H](Cc1c[nH]cn1)NC(=O)[C@H](CCCNC(=N)N)NC(=O)[C@H](CC(C)C)NC(=O)[C@H](Cc1ccccc1)NC(=O)[C@H](CC(N)=O)NC(=O)[C@H](C)NC(=O)[C@H](CC(C)C)NC(=O)[C@H](CCCNC(=N)N)NC(=O)[C@H](CCC(N)=O)NC(=O)[C@@H](NC(=O)[C@H](C)NC(=O)[C@@H]1CSSC[C@H](NC(=O)[C@@H](N)CCCCNC(=O)CC[C@H](NC(=O)CC[C@H](NC(=O)CCCCCCCCCCCCCCCCCCC(=O)O)C(=O)O)C(=O)O)C(=O)N[C@@H](CC(N)=O)C(=O)N[C@@H]([C@@H](C)O)C(=O)N[C@@H](C)C(=O)N[C@@H]([C@@H](C)O)C(=O)N1)[C@@H](C)O)C(=O)N1CCC[C@H]1C(=O)N[C@@H](CO)C(=O)N[C@@H](CO)C(=O)N[C@H](C(=O)N1CCC[C@H]1C(=O)N[C@H](C(=O)NCC(=O)N1CCC[C@H]1C(=O)N[C@@H](CCCNC(=N)N)C(=O)N[C@H](C(=O)N[C@@H](Cc1ccc(O)cc1)C(N)=O)[C@@H](C)O)C(C)C)[C@@H](C)O` [Example 119] (H-K([γGlu-γGlu-C20 diacid])CNTATCATQRLANFLRHSSPNFGAIPSSTPVGPRTY-NH2; disulfide 2-7): in assay [1], the concentration giving a half-maximal response (EC50) is 8.66 nM. Also, the IC50 amounted to 0.381 nM in assay [2] (Table 7) and 42.8 nM in assay [3]. For the same molecule, the “Ratio rCT/rAmylin binding” value in assay [2] (setting [4]), in assay [2] (setting [5]) and in assay [2] (setting [6]) was 137.4 throughout.
